Experimental data taken from US20050234041A1, “Substituted 1-benzazepines and derivatives thereof” (priority 2001, published 2005).
Values after ≈ are worked out from the molar mass of the structure shown. Read-outs that look alike come from different tables or passages of the source.

Legend:
Campylobacter jejuni = assay: MIC, broth dilution method, Campylobacter jejuni; type: cell-based; settings: for MIC: Campylobacter jejuni
Description: (§1) Antibacterial activity can be determined by several standard methods well known by those skilled in the art, including disc diffusions methods, broth dilution minimal inhibitory concentration (MIC) methods, etc., including the detailed method outlined below and as defined by the National Committee of Clinical Laboratory Standards in the United States.
(§2) MIC, Broth Dilution Method
(§3) Cultures of bacteria are initially brought up from the freezer stocks onto chocolate agar plates by streaking a loop-full, then incubated for 18 hours at 35-37° C. in a 5% CO2 incubator.
(§4) Five to 10 colonies are picked from the chocolate agar plate for subculture to Brain-Heart Infusion (BHI) broth or Mueller Hinton broth or BHI containing 4% serum and incubated as described.
(§5) Evaluate the optical density of the organisms in the wells of a 96 well microtiter plate with and without the test compound. The optical density of the organisms in the presence of an active compound will be less than the optical density of the same organism untreated. The activity of the compounds is described as either negative or the lowest concentration inhibiting growth. The results are depicted in Table III, where +/− represents the least activity and ++++ represents the greatest activity. In Table IV, the results are depicted where MIC represents the lowest concentration of antibiotic that inhibits bacterial growth.

Helicobacter pylori = assay: MIC, broth dilution method, Helicobacter pylori; type: cell-based; settings: for MIC: Helicobacter pylori
Description: as §1, §2, §3, §4, §5

bacteria = assay: Antibacterial activity, broth dilution (Table III); type: cell-based; settings: graded activity, organism not given
Description: as §1, §2, §3, §4, §5

[1] = Table IV, MIC, lowest concentration that inhibits bacterial growth, read-out: Antibacterial Activity (micrograms/ml) Campylobacter jejuni
[2] = Table IV, MIC, lowest concentration that inhibits bacterial growth, read-out: Antibacterial Activity (micrograms/ml) Helicobacter pylori
[3] = Table IV, MIC, lowest concentration that inhibits bacterial growth
[4] = Table V, read-out: MIC (μg/mL) C. jejuni
[5] = Table V, read-out: MIC (μg/mL) H. pylori

Structure (SMILES) | MIC (Campylobacter jejuni; [1]) [µg/mL] | MIC (Helicobacter pylori; [2]) [µg/mL] | melting point | MIC (Campylobacter jejuni; [4]) [µg/mL] | MIC (Helicobacter pylori; [5]) [µg/mL] | also measured
CCOC(=O)C1CCc2ccc(OC)cc2NC1=O (racemic) [Example 3, 3(R,S)-Ethoxycarbonyl-8-methoxy-2,3,4,5-tetrahydro-1H-1-benzazepine-2-one] | 100 (≈ 380 µM) | 50 to 100 (≈ 190 to 380 µM) | 89 to 91 °C |  |  | 
CCN1C(=O)C(C(=O)O)CCc2ccc(OC)cc21 (racemic) [Example 5, 3(R,S)-Carboxyl-1-ethyl-8-methoxy-2,3,4,5-tetrahydro-1H-1-benzazepine-2-one] | > 200 | 100 (≈ 380 µM) | 120 to 121 °C |  |  | 
COc1ccc2c(c1)NC(=O)C(C(=O)OC(C)(C)C)CC2 (racemic) [Example 11, 3(R,S)-tert-Butoxycarbonyl-8-methoxy-2,3,4,5-tetrahydro-1 H-1-benzazepine-2-one] | 100 to 200 (≈ 343 to 686 µM) | 50 (≈ 172 µM) | 145 to 147 °C |  |  | 
CCN1C(=O)C(C(=O)OC(C)(C)C)CCc2ccc(OC)cc21 (racemic) [Example 12, 3(R,S)-tert-Butoxycarbonyl-1-ethyl-8-methoxy-2,3,4,5-tetrahydro-1H-1-benzazepine-2-one] | > 200 | 50 (≈ 157 µM) | 132 to 133 °C |  |  | 
CCN1C(=O)C(C(=O)OC(C)(C)C)CCc2cc(Br)c(OC)cc21 (racemic) [Example 13, 7-Bromo-3(R,S)-tert-butoxycarbonyl-1-ethyl-8-methoxy-2,3,4,5-tetrahydro-1H-1-benzazepine-2-one] | > 200 | 6.25 to 12.5 (≈ 15.7 to 31.4 µM) | 131 to 132 °C |  |  | 
CCN1C(=O)C(C(=O)OC(C)(C)C)CCc2cc(N3CCNCC3)c(OC)cc21 (racemic) [Example 18, 3(R,S)-tert-Butoxycarbonyl-1-ethyl-8-methoxy-7-(piperazin-1-yl)-2,3,4,5-tetrahydro-1H-1-benzazepine-2-one] | > 200 | 50 (≈ 124 µM) | 165 °C (dec.) |  |  | 
COc1ccc2c(c1)N(C(=O)OC(C)(C)C)C(=O)C(C(=O)OC(C)(C)C)CC2 (racemic) [Example 23, 1-tert-Butoxycarbonyl-3(R,S)-tert-butoxycarbonyl-8-methoxy-2,3,4,5-tetrahydro-1H -benzazepine-2-one] | 200 (≈ 511 µM) | 50 (≈ 128 µM) | 91 to 92 °C |  |  | 
CCN1C(=O)C(C(=O)NC(C)(C)C)CCc2cc(Br)c(OC)cc21 (racemic) [Example 29, 7-bromo-3(R,S)-N-(tert-butyl)aminocarbonyl-1-ethyl-8-methoxy-2,3,4,5-tetrahydro-1H-1-benzazepine-2-one] | > 200 | > 200 |  |  |  | Antibacterial Activity (bacteria): −
COc1cc2c(cc1N1CCN(C(=O)OCc3ccccc3)CC1)CCC(C(=O)OC(C)(C)C)C(=O)N2Cc1cccc(F)c1 (racemic) [Example 31, 7-[(4-Benzyloxycarbonyl)piperazin-1-yl]-3(R,S)-tert-butoxycarbonyl-1-(3-fluorobenzyl)-8-methoxy-2,3,4,5-tetrahydro-1 H-1-benzazepine-2-one] |  |  |  |  |  | Antibacterial Activity (bacteria): ++++; Antibacterial Activity (micrograms/ml) Campylobacter jejuni (Campylobacter jejuni; [3]): >200 micrograms/ml; Antibacterial Activity (micrograms/ml) Helicobacter pylori (Helicobacter pylori; [3]): 0.78 micrograms/ml
CCN1C(=O)C(C(=O)OC(C)(C)C)CCc2ccc(O)cc21 (racemic) [Example 178, 3(R,S)-tert-Butoxycarbonyl-1-ethyl-8-hydroxy-2,3,4,5-tetrahydro-1H-1-benzazepine-2-one] |  |  | 154 to 156 °C | > 200 | 16 (≈ 52.4 µM) | 
COc1cc2c(cc1[N+](=O)[O-])CCC(C(=O)OC(C)(C)C)C(=O)N2C(=O)OC(C)(C)C (racemic) [Example 195, 1,3(R,S)-Di(tert-butoxycarbonyl)-8-methoxy-7-nitro-2,3,4,5-tetrahydro-1H-1-benzazepine-2-one] |  |  | 142 to 144 °C (dec.) | 60 (≈ 137 µM) | 4 (≈ 9.16 µM) | 
CC(C)(C)OC(=O)C1CCc2cc([N+](=O)[O-])c(O)cc2NC1=O (racemic) [Example 220, 3(R,S)-tert-Butoxycarbonyl-8-hydroxyl-7-nitro-2,3,4,5-tetrahydro-1H-1-benzazepine-2-one] |  |  | 189 to 191 °C (dec.) | 250 (≈ 776 µM) | 8 (≈ 24.8 µM) | 
COc1ccc2c(c1)NC(=O)CCC2 [Example 2, 8-Methoxy-2,3,4,5-tetrahydro-1H-1-benzazepine-2-one] | 50 (≈ 261 µM) | > 200 | 105 to 106 °C |  |  | 
CCN1C(=O)CCCc2cc(Br)c(OC)cc21 [Example 9, 7-Bromo-1-ethyl-8-methoxy-2,3,4,5-tetrahydro-1H-1-benzazepine-2-one] | > 200 | 100 (≈ 335 µM) | 133 to 135 °C |  |  | 
COc1cc2c(cc1Br)CCCC(=O)N2 [Example 24, 7-Bromo-8-methoxy-2,3,4,5-tetrahydro-1H-1-benzazepine-2-one] | > 200 | 100 (≈ 370 µM) | 180 to 182 °C |  |  | 
O=C1CCCc2cc([N+](=O)[O-])c(O)cc2N1 [Example 175, 8-Hydroxy-7-nitro-2,3,4,5-tetrahydro-1 H-1-benzazepine-2-one] | 30 (≈ 135 µM) | 1 (≈ 4.5 µM) | 239 to 240 °C | 30 (≈ 135 µM) | 1 (≈ 4.5 µM) | 
O=C1CCCc2ccccc2N1 [Example 187, 2,3,4,5-tetrahydro-1H-1-benzazepine-2-one] |  |  |  | > 250 | 64 (≈ 397 µM) | 
O=C1CCCc2c(O)cccc2N1 [Example 188, 6-Hydroxy-2,3,4,5-tetrahydro-1H-1-benzazepine-2-one] |  |  |  | > 250 | 32 (≈ 181 µM) | 
O=C1CCCc2cc(O)ccc2N1 [Example 189, 7-Hydroxy-2,3,4,5-tetrahydro-H-1-benzazepine-2-one] |  |  |  | > 250 | 125 (≈ 705 µM) | 
CCN1C(=O)CCCc2ccc(N)cc21 [Example 190, 8-Amino-1-ethyl-2,3,4,5-tetrahydro-1H-1-benzazepine-2-one] |  |  |  | 250 (≈ 1220 µM) | 64 (≈ 313 µM) | 
CCN1C(=O)CCCc2ccc(Br)cc21 [Example 191, 8-Bromo-1-ethyl-2,3,4,5-tetrahydro-1H-1-benzazepine-2-one] |  |  |  | 8 (≈ 29.8 µM) | 16 (≈ 59.7 µM) | 
COc1ccc2c(c1)NC(=O)C(C(=O)NOCc1ccccc1)CC2 (stereo not shown) [Example 193, 3-Benzyloxyaminocarbonyl-8-methoxy-2,3,4,5-tetrahydro-1H-1-benzazepine-2-one] |  |  | 162 to 164 °C | > 250 | 4 (≈ 11.8 µM) | 
COc1ccc2c(c1)NC(=O)C(C(=O)NO)CC2 (stereo not shown) [Example 197, 3-Hydoxyaminocarbonyl-8-methoxy-2,3,4,5-tetrahydro-1H-1-benzazepine-2-one] |  |  |  | > 250 | 125 (≈ 499 µM) | 
COc1cc2c(cc1[N+](=O)[O-])CCC(C(=O)OC(C)(C)C)C(=O)N2CCOC1CCCCO1 [Example 224, 3(R,S)-tert-Butoxycarbonyl-8-methoxy-7-nitro-1-[2-(tetrahydro-2H-pyran-2-yloxy)]ethyl-2,3,4,5-tetrahydro-1H-1-benzazepine-2-one] |  |  |  |  |  | MIC (μg/mL) C. jejuni (Campylobacter jejuni; Table V): >250, μg/mL; MIC (μg/mL) H. pylori (Helicobacter pylori; Table V): 60 µg/mL (≈ 129 µM)
